{
  "source": "patent US20110124579A1",
  "about": "“SIALIC ACID TO SUPPORT SALIVATION” (NESTEC S.A., priority 2008, published 2011)",
  "system": "rats",
  "assay": "Pilocarpine stimulated salivation (cholinergic neuronal activity) in young adult and aged rats after 3 weeks on diet",
  "assay_type": "in vivo, rat",
  "description": "Young adult (3 months) and aged rats (24 months) were fed a semisynthetic diet containing sialic acid at a concentration of 0.15 g/100 g diet (control) or a semi-synthetic diet additionally supplemented with sialic acid to a final concentration of 0.9 g/100 g diet (Sia).\nAfter 3 weeks on the experimental diet neuronal activity of cholinergic neurons was assessed. To this end rats were injected pilocarpine (IP, 1.5 mg/kg body weight for 24 months rats and 2 mg/kg body weight for 3 months rats). Pilocarpine is a muscarinic agonist acting on cholinergic neurons, which leads to salivation. Thus stimulated saliva collection was timed with a chronometer. After about 7 minutes collection was stopped.",
  "note": "“Also recorded” adds a separate entry of the source.",
  "data": [
    {"compound": "CC(=O)N[C@H]1[C@H]([C@H](O)[C@H](O)CO)OC(O)(C(=O)O)C[C@@H]1O", "note": "(some centres unmarked) [sialic acid, N-acetylneuraminic acid]", "values": [
      {"measurement": "stimulated salivation / neuronal activity of cholinergic neurons (stimulated saliva production per time)", "setting": "aged rats (24 months), diet supplemented with sialic acid to 0.9 g/100 g diet vs control 0.15 g/100 g, 3 weeks, pilocarpine IP 1.5 mg/kg, 1.5 mg/kg", "value": "increased stimulated salivation equal to the salivation found in young animals; also recorded: significantly increased neuronal activity; also recorded: reached similar stimulated salivation values as the young animals; also recorded: proper salivation was re-established in aged animals"},
      {"measurement": "Pilocarpine stimulated salivation, aged vs young adult rats", "setting": "young adult (3 m) and old age (24 m) rats, NeuAc enriched diet vs control diet for 3 weeks, FIG. 2, N=8-10", "value": "increased stimulated salivation in aged rats much more efficiently than in young adult rats"}
    ]}
  ]
}
